Data taken from publication PMC6277767, “Broad and Region-Specific Impacts of the Synthetic Cannabinoid CP 55,940 in Adolescent and Adult Female Mouse Brains” (Frontiers in Molecular Neuroscience, 2018).

System: CD1 female mouse brain lipidome
Test: Brain-region lipid levels (HPLC/MS/MS lipidomics) 2 h after single i.p. 3 mg/kg CP 55,940 vs vehicle
Type: in vivo
Set-up: N-arachidonoyl phenylalanine level, Mean / N-stearoyl tryptophan level, Mean / N-stearoyl proline level, Mean / N-stearoyl leucine level, Mean / N-stearoyl phenylalanine level, Mean / N-stearoyl serine level, Mean / N-stearoyl methionine level, Mean: unit: moles per gram
Conditions: cerebellum
Description: The Bloomington Institutional Animal Care and Use Committee of Indiana University reviewed and approved the animal procedures. Female mice from the CD1 strain were utilized to match our study examining THC’s effects on the brain lipidome ([Leishman et al., 2018]). Mice were given a single i.p. injection of either 3 mg/kg CP or 1:1:18 cremophor:ethanol:saline vehicle (please refer to the section “3 mg/kg CP Is Relevant for Synthetic Cannabinoid Abuse and Has Stronger Effects on the Female Mouse Brain Lipidome During Adolescence” for a justification of dose and use of female mice). Three different age groups were given injections: PND 35 and PND 50 adolescents, and adult mice (PND 113). At least eight mice in each age group received CP and at least eight received vehicle. Matching the THC study time course ([Leishman et al., 2018]), mice were sacrificed via rapid decapitation 2 h after injection. Brains were immediately removed and flash-frozen in liquid nitrogen, and then stored at -80°C until dissections were performed. Brains were dissected on an ice-cold dissection plate into the following regions: STR, HIPP, CER, THAL, CTX, HYP, MID, and STEM. These abbreviations for these brain areas will be used exclusively when discussing the results generated by these specific dissections. Each dissected area was immediately placed in liquid nitrogen and then stored at -80°C until used for lipid extraction.
Tissue extracts were performed as previously described ([Bradshaw et al., 2006]; [Stuart et al., 2013]; [Raboune et al., 2014]; [Leishman et al., 2016a],[b], [2017], [2018]). First, samples were shock frozen in liquid nitrogen, weighed, and transferred to a centrifuge tube. The mass of the largest sample was multiplied by 50 to determine how many milliliters of HPLC-grade methanol (Fisher, Fair Lawn, NJ, United States) to add. Then, samples were spiked with 500 pmol deuterium-labeled NAGly (d8NAGly; Cayman Chemical, Ann Arbor, MI, United States). Samples were placed on ice in darkness for 2 h then individually homogenized and centrifuged at 19,000 × g for 20 min at 20°C. Supernatants were diluted with HPLC water (purified in house) to make a solution of 75% water, 25% supernatant. Lipids were partially purified on C18 solid phase extraction columns (Agilent, Palo Alto, CA, United States). A series of four elutions with 1.5 mL of 60%, 75%, 85%, and 100% methanol were collected ([Stuart et al., 2013]; [Leishman et al., 2016a],[b], [2018]).
As previously described ([Bradshaw et al., 2006]; [Tan et al., 2006]; [Smoum et al., 2010]; [Stuart et al., 2013]; [Tortoriello et al., 2013]; [Raboune et al., 2014]; [Leishman et al., 2016a],[b], [2017], [2018]), samples were analyzed using an Applied Biosystems API 3000 triple quadrupole mass spectrometer with electrospray ionization (Foster City, CA, United States). Using an Agilent XDB-C18 reversed phase analytical column and optimized mobile phase gradients, 20 μL from each elution were chromatographed. Two Shimadzu 10ADvp pumps (Columbia, MD, United States) provided the pressure for gradient elution. Mobile phase A: 20% methanol, 80% water (v/v) and 1 mM ammonium acetate (Sigma, St. Louis, MO, United States). Mobile phase B: 100% methanol, 1 mM ammonium acetate. Every method run began with 0% mobile phase B, reached 100% mobile phase B flowing at 0.2 mL/min, and gradually returned to 0% mobile phase B.
This screening library will be referred to as the lipidome when discussing data from this study. HPLC/MS/MS data were analyzed using Analyst software (Applied Biosystems) ([Bradshaw et al., 2006]; [Tan et al., 2006]; [Stuart et al., 2013]; [Tortoriello et al., 2013]; [Raboune et al., 2014]; [Leishman et al., 2016a],[b], [2017], [2018]). Chromatograms (Supplementary Figure 3) were generated by determining the retention time of analytes from the analytical column with a [M-1] or [M+1] parent peak and a fragmentation peak corresponding to the programmed values. […]

[1] = PND 50 female mice, 3 mg/kg CP 55,940
[2] = WT adult female mice, 3mg/kg CP 55,940

`CCCCCCC(C)(C)c1ccc([C@@H]2C[C@H](O)CC[C@H]2CCCO)c(O)c1` [CP 55,940] was tested, and the “N-arachidonoyl phenylalanine level, Mean” value [1] was 2.55E-13, the “N-arachidonoyl proline level, Mean” value [1] was “BDL” and the “N-arachidonoyl serine level, Mean” value [1] was 4.25E-12. For the same molecule, the “N-arachidonoyl taurine level, Mean” value [1] was 1.97E-11, the “N-arachidonoyl tryptophan level, Mean” value [1] was “BDL” and the “N-arachidonoyl tyrosine level, Mean” value [1] was 2.66E-13. The “N-docosahexaenoyl GABA level, Mean” value [1] was 9.21E-13, the “N-docosahexaenoyl ethanolamine level, Mean” value [1] was 3.09E-11 and the “N-docosahexaenoyl glycine level, Mean” value [1] was 4.01E-13. The “N-docosahexaenoyl leucine level, Mean” value [1] was 2.06E-13, the “N-docosahexaenoyl phenylalanine level, Mean” value [1] was 2.68E-13 and the “N-docosahexaenoyl proline level, Mean” value [1] was “BDL”. For the same molecule, the “N-docosahexaenoyl serine level, Mean” value [1] was 8.95E-12, the “N-docosahexaenoyl tryptophan level, Mean” value [1] was “BDL” and the “N-docosahexaenoyl tyrosine level, Mean” value [1] was 6.76E-13. For the same molecule, the “N-linoleoyl GABA level, Mean” value [1] was 6.58E-13, the “N-linoleoyl alanine level, Mean” value [1] was 7.79E-14 and the “N-linoleoyl ethanolamine level, Mean” value [1] was 3.74E-11. The “N-linoleoyl glycine level, Mean” value [1] was 1.39E-13, the “N-linoleoyl leucine level, Mean” value [1] was 5.12E-14 and the “N-linoleoyl proline level, Mean” value [1] was “BDL”. For the same molecule, the “N-linoleoyl serine level, Mean” value [1] was 5.53E-11, the “N-linoleoyl tryptophan level, Mean” value [1] was “BDL” and the “N-linoleoyl tyrosine level, Mean” value [1] was “BDL”. For the same molecule, the “N-nervonoyl valine level, Mean” value [1] was “BDL”, the “N-oleoyl GABA level, Mean” value [1] was 2.42E-12 and the “N-oleoyl alanine level, Mean” value [1] was 9.8E-13. The “N-oleoyl dopamine level, Mean” value [1] was “BDL”, the “N-oleoyl ethanolamine level, Mean” value [1] was 6.07E-11 and the “N-oleoyl glycine level, Mean” value [1] was 1.13E-12. For the same molecule, the “N-oleoyl leucine level, Mean” value [1] was 5.63E-13, the “N-oleoyl methionine level, Mean” value [1] was 2.55E-13 and the “N-oleoyl phenylalanine level, Mean” value [1] was 1.01E-12. The “N-oleoyl proline level, Mean” value [1] was “BDL”, the “N-oleoyl serine level, Mean” value [1] was 1.05E-10 and the “N-oleoyl tryptophan level, Mean” value [1] was “BDL”. For the same molecule, the “N-oleoyl tyrosine level, Mean” value [1] was 3.12E-13, the “N-oleoyl valine level, Mean” value [1] was 4.78E-14 and the “N-palmitoyl GABA level, Mean” value [1] was 5.13E-12. For the same molecule, the “N-palmitoyl alanine level, Mean” value [1] was 2.64E-12, the “N-palmitoyl ethanolamine level, Mean” value [1] was 5.07E-11 and the “N-palmitoyl glycine level, Mean” value [1] was 3.72E-12. For the same molecule, the “N-palmitoyl leucine level, Mean” value [1] was 1.13E-12, the “N-palmitoyl methionine level, Mean” value [1] was 9.79E-13 and the “N-palmitoyl phenylalanine level, Mean” value [1] was 1.27E-12. The “N-palmitoyl proline level, Mean” value [1] was “BDL”, the “N-palmitoyl serine level, Mean” value [1] was 1.43E-11 and the “N-palmitoyl tryptophan level, Mean” value [1] was “BDL”. For the same molecule, the “N-palmitoyl tyrosine level, Mean” value [1] was 6.09E-13, the “N-palmitoyl valine level, Mean” value [1] was 1.77E-13 and the “N-stearoyl GABA level, Mean” value [1] was 5.74E-12. The “N-stearoyl alanine level, Mean” value [1] was 1.16E-12, the “N-stearoyl ethanolamine level, Mean” value [1] was 2.6E-11 and the “N-stearoyl glycine level, Mean” value [1] was 5.05E-13. For the same molecule, the “N-stearoyl leucine level, Mean” value [1] was 8.15E-13, the “N-stearoyl methionine level, Mean” value [1] was 4.91E-13 and the “N-stearoyl phenylalanine level, Mean” value [1] was 1.17E-12. The “N-stearoyl proline level, Mean” value [1] was “BDL”, the “N-stearoyl serine level, Mean” value [1] was 3.32E-11 and the “N-stearoyl tryptophan level, Mean” value [1] was “BDL”. For the same molecule, the “N-stearoyl tyrosine level, Mean” value [1] was 1.08E-13, the “Oleic acid level, Mean” value [1] was 2.36E-10 and the “PGE2 level, Mean” value [1] was 5.14E-11. For the same molecule, the “THC level, Mean” value [1] was “BDL”, the “2-arachidonoyl glycerol level, Mean” value [2] was 4.32E-09 and the “2-linoleoyl glycerol level, Mean” value [2] was 2.44E-10. For the same molecule, the “2-oleoyl glycerol level, Mean” value [2] was 1.94E-09, the “2-palmitoyl glycerol level, Mean” value [2] was 1.01E-10 and the “6-ketoPGF1α level, Mean” value [2] was 2.25E-11. The “Arachidonic acid level, Mean” value [2] was 7.51E-10, the “Linoleic acid level, Mean” value [2] was 6.75E-10 and the “N-arachidonoyl GABA level, Mean” value [2] was 1.22E-11. For the same molecule, the “N-arachidonoyl ethanolamine level, Mean” value [2] was 1.33E-11, the “N-arachidonoyl glycine level, Mean” value [2] was 1.43E-13 and the “N-arachidonoyl phenylalanine level, Mean” value [2] was 4.52E-14. The “N-arachidonoyl taurine level, Mean” value [2] was 6.54E-11, the “N-docosahexaenoyl GABA level, Mean” value [2] was 8.3E-12 and the “N-docosahexaenoyl ethanolamine level, Mean” value [2] was 2.78E-11. For the same molecule, the “N-docosahexaenoyl glycine level, Mean” value [2] was 7.91E-14, the “N-docosahexaenoyl leucine level, Mean” value [2] was 1.51E-12 and the “N-docosahexaenoyl phenylalanine level, Mean” value [2] was 3.04E-14. For the same molecule, the “N-linoleoyl GABA level, Mean” value [2] was 7.7E-12, the “N-linoleoyl alanine level, Mean” value [2] was 2.18E-13 and the “N-linoleoyl ethanolamine level, Mean” value [2] was 1.87E-11. For the same molecule, the “N-linoleoyl glycine level, Mean” value [2] was 6.99E-14, the “N-linoleoyl serine level, Mean” value [2] was 1.99E-11 and the “N-oleoyl GABA level, Mean” value [2] was 1.65E-11. For the same molecule, the “N-oleoyl alanine level, Mean” value [2] was 2.34E-12, the “N-oleoyl ethanolamine level, Mean” value [2] was 2.04E-10 and the “N-oleoyl glycine level, Mean” value [2] was 2.49E-13. For the same molecule, the “N-oleoyl leucine level, Mean” value [2] was 1.06E-12, the “N-oleoyl phenylalanine level, Mean” value [2] was 6.03E-13 and the “N-oleoyl serine level, Mean” value [2] was 1.05E-10. The “N-oleoyl tyrosine level, Mean” value [2] was 8.96E-13, the “N-oleoyl valine level, Mean” value [2] was 2.42E-14 and the “N-palmitoyl GABA level, Mean” value [2] was 2.25E-11. The “N-palmitoyl alanine level, Mean” value [2] was 1.61E-12, the “N-palmitoyl ethanolamine level, Mean” value [2] was 6.47E-11 and the “N-palmitoyl glycine level, Mean” value [2] was 1.24E-12. For the same molecule, the “N-palmitoyl leucine level, Mean” value [2] was 1.34E-12, the “N-palmitoyl methionine level, Mean” value [2] was 6.89E-12 and the “N-palmitoyl phenylalanine level, Mean” value [2] was 1.87E-13.
